In the METLIN SMRT retention time set (Domingo-Almenara et al. 2019) one finds RP-LC retention time data, which are given here for 79 compounds.

Molecules are shown by their SMILES.

The nature of the data set: gradient 5% acetonitrile 3 min, to 50% in 2 min, to 85% in 15 min, held 3 min, 100 µL/min. To be noted: column: Zorbax Extend-C18 2.1 x 50 mm; eluents: water / acetonitrile, 0.1% formic acid. Put shortly: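 Each retention time is based on an adduct peak selected computationally and verified by manual inspection. Measurements used HPLC–quadrupole time-of-flight mass spectrometry in positive and negative ionization mode on mixtures of ~100 pure standards. Chromatography ran on a Zorbax Extend-C18 column (2.1 × 50 mm, 1.8 μm) at 100 μL/min with water and acetonitrile, each containing 0.1% formic acid, and dead and dwell volumes of 40 μL and 900 μL.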
In turn, `CCC1(O)CCC12CCN(C(=O)CC1CCCC1)CC2` (centres undefined) had an RP-LC retention time of 830 s.

As to `Cc1nn(-c2ccccc2)c2c1N(CCCC(=O)N1CCOCC1)C(=O)CS2`, the RP-LC retention time is 694 s.

Consider `COc1ccc(-c2nc(-c3cn(Cc4cccc(F)c4)nn3)no2)c(OC)c1`, for which the RP-LC retention time came to 934 s.

In turn, `O=C(Nc1ccc(F)cc1)c1ccc(Br)s1` returned an RP-LC retention time of 935 s.

`COc1cc(CNC(=O)c2c(N3CCCC3=O)c3cc(F)ccc3n2C)cc(OC)c1OC` registered an RP-LC retention time of 791 s.

Compound `Cc1nn(CC(=O)N2CCN(c3ccccn3)CC2)c(=O)c2nc(-c3ccccc3)sc12` yielded an RP-LC retention time of 632 s.

In turn, `CC(C)C(=O)Nc1ccc(-n2cnc(C(=O)NC3CCCCC3)c2)nc1` yielded an RP-LC retention time of 765 s.

For the compound `O=C(NCCC1=CCCCC1)C(=O)NCC1CCN(Cc2ccco2)CC1`, the RP-LC retention time was 581 s.

`CCN(CC)S(=O)(=O)c1ccc2c(c1)N(CC(=O)N(C)Cc1ccco1)C(=O)C1CCCCN21` (centres undefined) displayed an RP-LC retention time of 959 s.

In turn, `Cc1ccc(NC(=O)N2CCC(c3nc(C(=O)N4CCCC4)c(C)o3)CC2)cc1F` showed an RP-LC retention time of 835 s.

Compound `Cc1cccc(CNC(=O)C2(C)Cn3cnc(C(=O)N(C)Cc4ccccc4)c3C(=O)N2C2CC2)c1` (centres undefined) yielded an RP-LC retention time of 816 s.

Compound `COc1ccc(NC(=O)Cc2csc(NC(=O)c3ccc(=O)[nH]c3)n2)cc1Cl` showed an RP-LC retention time of 637 s.

For the compound `O=C(NCc1ccc(F)cc1Cl)C1CCc2nc(N3CCOCC3)ncc2C1` (centres undefined), the RP-LC retention time worked out at 768 s.

Consider `CC1(C)CC(=O)c2cn(-c3ccc(F)cc3)c(=O)c(C(=O)Nc3ccccc3F)c2C1`, for which the RP-LC retention time was determined as 1070 s.

`O=C(Cc1csc(SCC(=O)c2cccs2)n1)Nc1ccc(F)c(Cl)c1` had an RP-LC retention time of 923 s.

`Cc1sc2ncnc(SCC(=O)Nc3nc(-c4ccccc4)ns3)c2c1C` returned an RP-LC retention time of 1080 s.

Take `O=C(NC1CC1)C1CCN(c2nc3ccc(-c4cccnc4)nc3s2)CC1`: the RP-LC retention time came to 598 s.

`Cc1ccc(C)c(-c2nc(-c3ccc4c(c3)oc(=O)n4C(C)C)no2)c1` came in with an RP-LC retention time of 1190 s.

`Cc1ccc(C)c(NC(=O)N2CCCC(C)(C(=O)NCc3ccc(F)cc3)C2)c1` (centres undefined) yielded an RP-LC retention time of 963 s.

`COCC(=O)NCc1nnnn1C1CCCCC1` had an RP-LC retention time of 608 s.

In turn, `Cn1cc(S(=O)(=O)N2CCC(C(=O)Nc3cccc(C#N)c3)CC2)cc1C(=O)N1CCCC1` registered an RP-LC retention time of 751 s.

As for `CC(Oc1cccc2ccccc12)c1nc2c3ccccc3ncn2n1` (centres undefined), the RP-LC retention time is 1090 s.

For `CCCNC(=O)c1cc2c(s1)N(C)CCC2`, the RP-LC retention time worked out at 771 s.

In the case of `CCCN(C)c1nccn2c(=O)n(CC(=O)Nc3ccc(C)c(Cl)c3)nc12`, the RP-LC retention time amounted to 765 s.

The compound `O=C(Nc1cccc(C(=O)NCCC2=CCCCC2)c1)C1=CSCCO1` had an RP-LC retention time of 925 s.

`O=S(=O)(c1ccccc1Cl)N1CCc2nc(-c3ccc(Cl)cc3)ncc2C1`: the RP-LC retention time came out at 1180 s.

As for `CCCC(NC(=O)Cc1ccc(Cl)cc1)C(=O)Nc1nc2ccccc2[nH]1` (centres undefined), the RP-LC retention time is 753 s.

In the case of `CCN(CC)C(=O)c1cc2c(s1)CCC(C(=O)NCc1cccnc1)C2` (centres undefined), the RP-LC retention time stood at 528 s.

Compound `COc1ccc(-c2nc3cnccn3c2Nc2ccc(C(=O)NCC3CCCO3)cc2)cc1OC` (centres undefined) displayed an RP-LC retention time of 645 s.

In turn, `O=C(c1ccc(-c2cccs2)nc1)N1CCCC1` displayed an RP-LC retention time of 737 s.

In the case of `COc1ccc(C(=O)Nc2sc3ccccc3c(=O)c2-c2cccs2)cc1OC`, the RP-LC retention time came to 951 s.

`CC1=C(c2ccc(C)c(C)c2)S(=O)(=O)N=C1N1CCCN(C(=O)C(C)C)CC1` came in with an RP-LC retention time of 854 s.

`Cc1c(-c2ccnc(N3CCCCC3)n2)cnc2nc(-c3ccccc3)nn12` displayed an RP-LC retention time of 1180 s.

`O=C1[C@H]2CN(Cc3cccc(Cl)c3F)C[C@H]2C(=O)N1CCc1ccccc1` came in with an RP-LC retention time of 992 s.

With `O=C(Cn1cnc2c(sc3nc(-c4ccccc4)ccc32)c1=O)Nc1ccccc1Cl`, the RP-LC retention time stood at 1020 s.

`COCCNC(=O)CS(=O)Cc1cnn(-c2ccccc2)c1-n1cccc1` (centres undefined) had an RP-LC retention time of 678 s.

`COc1ccc(-c2ccc(=O)n(CCCNS(=O)(=O)/C=C/c3ccccc3)n2)cc1` came in with an RP-LC retention time of 830 s.

`COc1ccc(-c2cc(C(=O)N3CCCC3c3cc(C)on3)no2)cc1` (centres undefined): the RP-LC retention time came to 964 s.

`CC(C)CN1CCn2cc(C(=O)N3CCN(c4ccccc4)CC3)nc2C1` yielded an RP-LC retention time of 605 s.

In turn, `CCOC(=O)CCNC(=O)N1CCC(OC2CCN(Cc3ccccc3)CC2)CC1` showed an RP-LC retention time of 607 s.

`CCc1ccc(C2=C(C)C(N3CCCN(C(=O)C4CCC4)CC3)=NS2(=O)=O)cc1`: the RP-LC retention time came out at 875 s.

`CCCNC(=O)CCC1CCN(c2cc(NC3CC3)ncn2)CC1`: the RP-LC retention time amounted to 600 s.

Take `CCCS(=O)(=O)c1nc2ccc(NS(=O)(=O)Cc3cc(C)ccc3C)cc2s1`: the RP-LC retention time stood at 1040 s.

The compound `O=C(NCCCN1CCCC1)c1c2c(nc3ccccc13)C(=O)N(C1CCCCC1)C2` yielded an RP-LC retention time of 595 s.

With `Cc1cccc(-c2noc(Cn3ncn4nc(-c5cc(C)ccc5C)cc4c3=O)n2)c1`, the RP-LC retention time was determined as 1270 s.

The compound `CCCNC(=O)C1CCCN(c2nc3ncn(CC(=O)NCc4ccc(C)cc4)c(=O)c3s2)C1` (centres undefined) showed an RP-LC retention time of 715 s.

With `CCCNS(=O)(=O)c1cc(-c2cc(C(F)(F)F)on2)sc1C`, the RP-LC retention time is 1090 s.

Compound `CCCCn1c(=O)c2ccccc2n(Cc2nc(-c3ccc(Cl)c(F)c3)no2)c1=O` gave an RP-LC retention time of 1110 s.

As for `O=C(Nc1ccc(Br)cc1)c1ccc(S(=O)(=O)N2CCCC2)cc1`, the RP-LC retention time turned out to be 914 s.

`CCN1CCCC(C(=O)NCc2cccc(OC)c2OC)(c2ccccc2)CC1` (centres undefined) had an RP-LC retention time of 660 s.

On to `O=C1COc2cc(Cl)ccc2N1Cc1nc(-c2ccc3c(c2)OCO3)no1`, for which the RP-LC retention time stood at 1070 s.

Turning to `CCOc1ccc(NC(=O)C2CCN(S(=O)(=O)c3cn(C)cn3)CC2)cc1`, the RP-LC retention time came out at 699 s.

`COc1ccc(C(=O)Nc2nc(-c3ccc4c(c3)NC(=O)CO4)c(C)s2)cc1OC` registered an RP-LC retention time of 814 s.

Compound `CCOC(=O)c1nn(-c2ccccc2C)c(=O)cc1NCc1ccc2c(c1)OCO2` displayed an RP-LC retention time of 874 s.

The compound `O=C(Cn1nc2c(N3CCCCCC3)nccn2c1=O)Nc1cccc(C(F)(F)F)c1` gave an RP-LC retention time of 805 s.

Compound `COc1ccccc1Nc1nc(-c2ccccc2)c(CC(=O)O)s1` gave an RP-LC retention time of 891 s.

In turn, `CC1CCc2nc3ncn(CC(=O)Nc4cccc(Br)c4)c(=O)c3cc2C1` (centres undefined) registered an RP-LC retention time of 854 s.

The compound `CC1CCN(C(=O)c2cn(-c3ccc(-c4nc(C(C)(C)C)no4)cn3)cn2)CC1` displayed an RP-LC retention time of 1130 s.

For the compound `O=C(Cn1nc2c(cc1=O)CCCCC2)Nc1nc(-c2ccncc2)cs1`, the RP-LC retention time worked out at 620 s.

For the compound `NS(=O)(=O)c1ccc(Cl)c(-c2nnc(-c3ccccc3)o2)c1`, the RP-LC retention time amounted to 788 s.

On to `O=S(=O)(c1cccc2nsnc12)N1CCC(Cc2nc(-c3cccnc3)n[nH]2)C1` (centres undefined), for which the RP-LC retention time came to 633 s.

The compound `CCSc1nnnn1-c1ccc(NC(=O)c2ccc3nnsc3c2)cc1` yielded an RP-LC retention time of 838 s.

In turn, `COc1ccccc1NC(=O)Nc1ccc2nc3n(c(=O)c2c1)CCC3` had an RP-LC retention time of 698 s.

Take `Cc1nc2ccn(Cc3ccco3)c(=O)c2cc1C(=O)NCc1ccc2c(c1)OCO2`: the RP-LC retention time was 722 s.

Compound `Cc1ccc(Cn2cc(-c3ccncc3)cc2C(=O)NCc2cccs2)cc1` showed an RP-LC retention time of 734 s.

`CC(=O)N1CCCc2cc(S(=O)(=O)N3CCC(C(=O)Nc4cccc(C)n4)CC3)ccc21` came in with an RP-LC retention time of 684 s.

For the compound `CCS(=O)(=O)N1CC(=O)N(c2ccc(C)c(Cl)c2)C(C)(C(=O)NCc2ccccc2)C1` (centres undefined), the RP-LC retention time was found to be 919 s.

`Cc1cccc(-n2c(=O)c3c(cc(C)n3C)n(CC(=O)Nc3ccc(C)c(F)c3)c2=O)c1` displayed an RP-LC retention time of 866 s.

Compound `CN(C)C(=O)c1cc2c(s1)CCC(C(=O)NCCc1ccncc1)C2` (centres undefined) came in with an RP-LC retention time of 563 s.

In turn, `Cc1cccn2cc(-c3cccc(S(=O)(=O)N4CCCC4)c3)nc12` came in with an RP-LC retention time of 637 s.

Consider `CC(C)NC(=O)Cn1cnc2ccccc2c1=O`, for which the RP-LC retention time turned out to be 609 s.

For the compound `COC(=O)c1c(NCc2ccc(OC)c(OC)c2)c2cccc(Cl)c2[nH]c1=O`, the RP-LC retention time was 736 s.

Consider `O=C1C(c2ccncc2)N(Cc2ccco2)C(=O)CN1c1ccccc1` (centres undefined), for which the RP-LC retention time was determined as 628 s.

`COC(=O)c1c(NC(C)c2ccc(F)cc2)c2cccc(Cl)c2[nH]c1=O` (centres undefined): the RP-LC retention time turned out to be 858 s.

With `CC(C)C(=O)NCC12CCC=C1N(C)C(=O)CC2` (centres undefined), the RP-LC retention time came out at 636 s.

`Cn1cnc(S(=O)(=O)N2CC(Oc3ccc(-c4noc(C5CC5)n4)cc3)C2)c1`: the RP-LC retention time came to 794 s.

The compound `Cc1ccc(Sc2nccnc2N2CCCC(C(=O)N3CCN(c4ccccc4C)CC3)C2)cc1` (centres undefined) returned an RP-LC retention time of 1330 s.

As for `COc1ccc(C(O)CN2CCN(C3CCCCC3)CC2)cc1OC` (centres undefined), the RP-LC retention time is 541 s.

`Cc1ccc(-n2cc(C(=O)OCC(=O)OC(C)C)c3ccccc3c2=O)cc1` showed an RP-LC retention time of 1130 s.
